Source: PubChem BioAssay AID1996
In brackets after ≈: the same amount, converted by molar mass.

Conditions: buffer; pH 7.4; 200.0 µM

SMILES | solubility kinetic [µg/mL]
Cc1ccc(OCC(=O)O/N=C(\N)c2cccc([N+](=O)[O-])c2)cc1C | 1.8 (≈ 5.24 µM)
COc1ccc(C)cc1NC(=O)CC(NC(C)=O)c1ccccc1 (centres undefined) | > 49
Clc1ccc(CNc2cnccn2)cc1Cl | > 38.1
CCn1ccc(C(=O)N2CCN(c3ncccn3)CC2)n1 | > 43
Cc1cccnc1NC(=O)c1ccc(COc2ccccc2)o1 | > 46.3
CC1Cc2ccccc2N1C(=O)c1ccc2c(c1)OCO2 (centres undefined) | > 42.2
CC1(C)CCc2cc(-c3ccnc(=S)[nH]3)ccc2O1 | 8.5 (≈ 31.2 µM)
O=C(Nc1ccccc1C(=O)N1CCCCC1)c1ccco1 | > 44.8
Cc1ccc(N2CC(c3nc4ccccc4n3C)CC2=O)cc1 (centres undefined) | > 45.8
CN(C)S(=O)(=O)c1ccc(Cl)c(NC(=O)CNC2(C)CCS(=O)(=O)C2)c1 (centres undefined) | > 63.6
Cc1ccc(S(=O)(=O)c2c(C)cc(C)[nH]c2=O)cc1 | > 41.6
O=[N+]([O-])c1ccc(N2CCN(Cc3ccncc3)CC2)cc1 | 35.3 (≈ 118 µM)
Cc1cccc(Oc2nc(-c3ccccn3)nc3ccccc23)c1 | 27.6 (≈ 88.1 µM)
CCOC(=O)c1[nH]cnc1C(=O)Nc1ccc(F)cc1 | 6.7 (≈ 24.2 µM)
O=C(CSc1ncccn1)NCc1cccs1 | > 39.8
CCN1CCN(C2CC(=O)NC2=O)CC1 (centres undefined) | > 31.7
Cc1ccc(/C=C(\C#N)C(=O)N2CCCC2)c(C)c1 | > 38.1
O=[N+]([O-])c1ncccc1OCc1ccccc1Br | 5.7 (≈ 18.4 µM)
CC(Sc1ncccn1)C(=O)NC1CCCC1 (centres undefined) | > 37.7
O=C(NC1CCOc2ccccc21)C1CCCC1 (centres undefined) | > 36.8

SMILES | solubility kinetic [µg/mL]
CC1CC1C(=O)OCC(=O)Nc1cccc(F)c1 (centres undefined) | > 37.7
Cc1ccc(CN(C)C2CCN(C)CC2)cc1 | 31.3 (≈ 135 µM)
COC(=O)C(C(=O)OC)c1ncc(C(F)(F)F)cc1Cl | 41.1 (≈ 132 µM)
O=C(CCCc1nc(-c2ccccc2)no1)NC1CCCCC1 | 13.7 (≈ 43.7 µM)
Cc1ccc(CC2C(=O)N(c3cc(Cl)ccn3)C(=O)C2C)cc1 (centres undefined) | > 49.3
CC(=O)c1c(C(=O)O)c2ccccc2[nH]c1=O | 34 (≈ 147 µM)
CCN(Cc1ccccc1)C(=O)c1cc2cc(OC)c(OC)cc2[nH]1 | < 0.4
O=C(NCc1ccco1)c1ccccc1 | > 30.2
CC12CCC(C(=O)NCc3ccccc3Cl)(OC1=O)C2(C)C (centres undefined) | > 48.3
Cn1c(=S)[nH]c2c(c1=O)C(C)(C)Cc1ccccc1-2 | 3 (≈ 11 µM)
c1ccc(CNc2c3ccccc3nc3ccccc23)cc1 | 40.5 (≈ 142 µM)
COc1ccc2cc(C(N)=O)c(=Nc3ccc(C)cc3)oc2c1 | < 0.3
CN(C)C(CNS(=O)(=O)c1ccc(Cl)cc1F)c1ccco1.Cl (centres undefined) | > 57.5
CCC(C)C(=O)Nc1nc2ccc(OC)cc2s1 (centres undefined) | > 39.7
CCc1ccccc1Nc1ncnc2ccccc12.Cl | > 42.9
Cc1cccc(-c2nc3ccccc3c(=O)[nH]2)c1 | 4.2 (≈ 17.8 µM)
Cc1cnc(C(=O)OCC(=O)Nc2cccc3ccccc23)cn1 | > 48.2
Cc1ccc(S(=O)(=O)N[C@H](C(=O)NC2CCC(C)CC2)C(C)C)cc1 (some centres undefined) | 24 (≈ 65.5 µM)
COC(=O)c1oc(-c2ccc(Cl)cc2)nc1C | 2 (≈ 7.95 µM)
Cc1c(C(=O)OCC(=O)N2CCCC2)cccc1[N+](=O)[O-] | > 43.8

SMILES | solubility kinetic [µg/mL]
O=C(CN1CCCCC1)Nc1nc(-c2ccc(Cl)cc2)cs1 | < 0.2
COc1cc(/C=C(/C#N)C(=O)NCc2ccccc2)cc(OC)c1OC | 20 (≈ 56.8 µM)
COc1ccc(C(=O)N2CCC3(CC2)OCCO3)cc1 | > 41.6
Cc1nc(NC(=O)c2cccnc2Cl)sc1C | > 40.2
COc1ccc(Cl)cc1N(CC(=O)N1CCCC1)S(C)(=O)=O | 51.5 (≈ 148 µM)
CCN(CC)S(=O)(=O)c1cc(NS(=O)(=O)c2cccs2)ccc1C | > 58.3
CCN(c1ccccc1)S(=O)(=O)c1cc(NC(=O)CN2CCN(C)CC2)ccc1Cl.O=C(O)C(=O)O | > 81.2
O=c1[nH]c(=O)n(Cc2ccco2)c(O)c1C=NCCN1CCNCC1 | > 52.1
O=C(Nc1nccs1)c1ccc([N+](=O)[O-])cc1Cl | 3.8 (≈ 13.4 µM)
COc1ccc(/C=C/C(=O)OCC(=O)c2ccc[nH]2)cc1 | 5 (≈ 17.5 µM)
COC(=O)c1ccc(NC(=O)c2ccc3nc(C)sc3c2)cc1 | < 0.3
CC(NC(=O)COC(=O)c1cccs1)c1ccccc1 (centres undefined) | 11.9 (≈ 41.1 µM)
Cc1[nH]c2ccccc2c1-c1csc(NC(=O)CSCCO)n1 | > 52.1
CSc1nc2ccccc2c(=O)n1Cc1ccc(F)cc1 | < 0.3
COCc1nc2ccccc2n1CCc1ccccc1 | > 40
CN1CN=C(NS(=O)(=O)c2ccc([N+](=O)[O-])cc2)NC1 | > 44.9
Cc1cccc(NS(=O)(=O)c2c(C)noc2C)c1 | > 39.9
CC(NC(=O)c1cc2cc(F)ccc2[nH]1)c1ccccc1 (centres undefined) | 4.2 (≈ 14.9 µM)
Cc1ccc(OCCNC(=O)c2cccc(C)c2)cc1 | 29 (≈ 108 µM)
